Assay results reported in patent publication US11363816B2, “4-amino-6-(heterocyclic)picolinates and 6-amino-2-(heterocyclic)pyramidine-4-carboxylates and their use as herbicides” (Dow AgroSciences LLC, priority 2017, dated 2022).

Legend:
Assay type in all cases: in vivo
[1] = test system: CHEAL=Chenopodium album L. (common lambsquarters); experiment: Postemergence field trial, Nisku, Alberta, Canada
Experimental: (§1) Field trials were established in Canada (in Ellerslie, Alberta; Nisku, Alberta and Hanley, Saskatchewan) to evaluate the efficacy of Compound 5, Compound 6, and Compound 7. Trials were designed as randomized complete blocks with four replicates. Trials were established in spring wheat with natural weed population with plot sizes of 2-3 meters (m) by 8-10 m (width×length). The crops were grown using normal cultural practices for fertilization, seeding, and maintenance to ensure good growth of the crop.
(§2) All herbicide treatments were applied post-emergence with applications made to the crops at BBCH (Phenological development stages of a plant) 14 to 22 growth stage. Herbicides were applied with backpack or bicycle sprayers using carbon dioxide (CO2) as a propellant. The sprayers utilized flat fan air-induction spray nozzles calibrated to deliver a uniform spray pattern that provided thorough coverage of the foliage using a 100 L/ha spray volume. All treatments were applied with methylated seed oil (MSO) at 1.25% v/v. Phytotoxicity to the weeds was assessed visually at several intervals after application as percent overall control, compared to an untreated control plot. In general, four replicates were assessed for each treatment. All treatment results are an average of four replicates.
(§3) Compound 5, Compound 6 and Compound 7 were applied as emulsifiable concentrate (EC) formulations at 100 g ae/L EC, respectively.

weeds = experiment: Herbicidal activity, overall conclusion from greenhouse and field results; conditions: summary of Tables 1 to 8
From the text: These new chemical herbicides offer a broader spectrum of weed control, higher activity against weeds, and provide a way to address the management of weeds that developed resistance with respect to herbicides traditionally used to control them.

[2] = test system: KCHSC=Kochia scoparia (L.) Schrad. (Kochia); experiment: Postemergence field trial, Hanley, Saskatchewan, Canada; conditions: 66DAAA
Experimental: as §1, §2, §3

[3] = test system: POLCO=Polygonum convolvulus L. (wild buckwheat); experiment: as above; conditions: 66DAAA
Experimental: as §1, §2, §3

[4] = test system: CHEAL=Chenopodium album L. (common lambsquarters); experiment: as above; conditions: 66DAAA
Experimental: as §1, §2, §3

Compound	Percent (%) Visual Control CHEAL 51DAAA ([1]; 10 g ae/ha)	Percent (%) Visual Control CHEAL 51DAAA ([1]; 20 g ae/ha)	Percent (%) Visual Control CHEAL 51DAAA ([1]; 40 g ae/ha)	herbicidal activity (overall conclusion) (weeds)	Percent (%) Visual Control KCHSC ([2]; 10 g ae/ha)	Percent (%) Visual Control KCHSC ([2]; 20 g ae/ha)	Percent (%) Visual Control KCHSC ([2]; 40 g ae/ha)	Percent (%) Visual Control POLCO ([3]; 10 g ae/ha)	Percent (%) Visual Control POLCO ([3]; 20 g ae/ha)	Percent (%) Visual Control POLCO ([3]; 40 g ae/ha)	Percent (%) Visual Control CHEAL ([4]; 10 g ae/ha)	Percent (%) Visual Control CHEAL ([4]; 20 g ae/ha)	Percent (%) Visual Control CHEAL ([4]; 40 g ae/ha)
C#CCOC(=O)c1nc(-c2ccc3cc[nH]c3c2F)c(F)c(N)c1Cl [Compound 5, prop-2-yn-1-yl 4-amino-3-chloro-5-fluoro-6-(7-fluoro-1H-indol-6-yl)picolinate]	98%	96.8%	97.3%	superior herbicidal activity over Compound 7									
Nc1c(F)c(-c2ccc3cc[nH]c3c2F)nc(C(=O)OCc2ccccc2)c1Cl [Compound 7, benzyl 4-amino-3-chloro-5-fluoro-6-(7-fluoro-1H-indol-6-yl)picolinate, reference compound]	98%	98%	98%		45%	72%	78.8%	46.3%	63.3%	70%	95.5%	98.5%	98.8%
N#CCOC(=O)c1nc(-c2ccc3cc[nH]c3c2F)c(F)c(N)c1Cl [Compound 6, cyanomethyl 4-amino-3-chloro-5-fluoro-6-(7-fluoro-1H-indol-6-yl)picolinate]	98%	98%	98%	superior herbicidal activity over Compound 7	62%	81.5%	92.5%	47.5%	68.8%	85.8%	95%	98.3%	99%
